# Source: US6949553B2, “Aliphatic compounds, their synthesis method, and utilization of the same” (Maruha Corporation, priority 2001, dated 2005)
# Where “and” joins values, the source holds several entries; their conditions need not be identical. Equal values may be shown once. Read-outs that look alike come from different tables or passages of the source.
# Tests used:
# [1] = system: human platelets; assay: Human in vitro platelet aggregation; assay type: cell-based; conditions: read-out: 50% inhibition point, IC50, against human in vitro platelet aggregation
# Experimental: From each of the large brachial veins of human volunteers, 10 ml of blood per person was drawn using an 18G syringe needle. The blood was gently dropped into a 15 ml Falcon tube containing 1 ml of 3.8% sodium citrate (Citral, Yamanouchi Pharmaceutical). A stopper for the tube was closed, and slowly inverted for mixing. Then, the blood was centrifuged at 900 rpm for 10 minutes at room temperature to separate the supernatant (platelet rich fraction, platelet rich plasma, PRP). The residue was further centrifuged for 15 minutes at 2,500 rpm to obtain the supernatant (platelet poor fraction, platelet poor plasma, PPP). The platelet density of PRP was measured with a blood cell counter (Sysmex), and diluted with PPP to adjust the platelet density to 300,000 platelets/μl.
# Preparation of aggregation inducers was performed in the same manner as described earlier.
# For each experiment, the doses of the inducers were so set as to obtain best evaluation of the action of the study substance. That is, the concentration of each inducer at which aggregation would clearly develop in the presence of a negative control (physiological saline) but would not excessive was set for each experiment.
# If aggregation is induced by high concentration ADP or high concentration epinephrine, on the other hand, primary aggregation takes place, and then secondary aggregation proceeds again, under the action, as a trigger, of alpha granules (PDGF, serotonin, ADP, etc.) liberated from activated platelets. In the present study, the effect of the study substance on secondary aggregation due to ADP or epinephrine was also investigated.
# Serotonin, when used alone, minimally causes platelet aggregation. Thus, a combination of serotonin and collagen, or a combination of serotonin and ADP was used as the inducer. […] For example, if serotonin used alone induced aggregation at a dose of 1 mM, but induced little aggregation at a dose of 0.5 mM, and if ADP alone induced aggregation at a dose of 0.25 mM, but induced no aggregation at a dose of 0.11 mM, then the doses, 0.25 mM serotonin+0.05 mM ADP, were set.
# Compound 2 was used as the study substance, and the preparation of the inducers was performed in the same manner as described earlier.
# The measurement of the transmittance was carried out in the same manner as described earlier.
# [2] = system: platelets; assay: Ex vivo platelet aggregation after intravenous administration; assay type: in vivo, rat
# Experimental: The blood was withdrawn at three points in time, 10 minutes, 30 minutes and 1 hour after administration. Platelets were prepared from the blood samples taken, and they were used to study the aggregation rates when platelet aggregation was induced by 0.3 to 6 μg/ml of collagen. In a control group, the aggregation rates after administration of a solvent (physiological saline) were measured.
# It was studied whether the compound of the present invention would suppress ex vivo platelet aggregation dose-dependently.
# The blood was withdrawn 60 minutes after administration, and platelets were prepared from the blood. Platelet aggregation was induced by 4 to 7 μg/ml of collagen using the platelets.
# The blood was withdrawn 1 hour after intravenous administration, and platelets were prepared from the blood. Platelet aggregation was induced by 1 to 6 μg/ml of collagen using the platelets.
# [3] = system: mice; assay: Collagen-induced mouse sudden death model; assay type: in vivo; conditions: 30 μg/kg intravenous 1 hour before 37.5 mg/kg collagen; survival one hour later
# Experimental: As a preliminary study of the effect of the compounds of the present invention on an in vivo pathophysiological model, it was investigated whether the compound of the present invention would suppress collagen-induced mouse sudden death. In this model, pulmonary capillaries are obstructed by a large amount of collagen, and a sudden death is caused by oxygen deficiency.
# One hour after a solvent (physiological saline) or 30 μg/kg of Compound 2 was intravenously administered to mice, 37.5 mg/kg of collagen was administered to the caudal vein. One hour later, the survival rate was compared between the groups.
# [4] = system: rat lauric acid-induced leg necrosis; assay: Rat lauric acid-induced peripheral circulatory disorder model (leg necrosis score); assay type: in vivo; conditions: for leg necrosis score (in words): iv once daily 14 days, 10, 30 or 100 μg/kg; for alleviation of the disorder (in words): prior administration
# Experimental: A rat lauric acid-induced peripheral circulatory disorder model, which is widely used as a peripheral circulatory disorder model, was used to investigate the effect of the compounds of the present invention on an in vivo pathophysiological model of circulatory disorder.
# Lauric acid (1.5 mg/animal) was administered into the rat femoral artery to induce leg necrosis.
# A solvent (physiological saline) was administered as a control.
# The progress of foot/leg lesions was observed 3, 7, 10 and 14 days after lauric acid administration, and evaluated by the following leg necrosis score. The score was given to each of the digits, and the sum of the scores of the respective digits was taken as a lesion index. If the disorder extended to the plantar portion, 5 points were further added.
# Score 1: Blackening is limited to the tiptoe.
# Score 2: Blackening extends to the digital portion.
# Score 3: Necrosis of the digit.
# Score 4: Loss of the digit.
# A solvent (physiological saline) was similarly administered as a control.
# The progress of foot/leg lesions was observed 3, 7, 10 and 14 days after lauric acid administration, and evaluated by the above leg necrosis score.
# A test was conducted in the same manner as in (2) above.
# [5] = system: neutrophils and vascular endothelial cells; assay: Pseudo-blood vessel in vitro inflammation model (TNFα, neutrophil migration through endothelial cell layer); assay type: cell-based, bovine; conditions: 30, 3 or 0.3 μM, TNFα 50 ng/ml
# Experimental: A layer of bovine endothelial cells was adhered to the bottom surface of the membrane, and cultured for 80 minutes at 37° C. in 5% CO2. Then, a suspension of fluorescence-labeled neutrophils was added to the upper chamber of the transwell. Simultaneously, TNFα was suspended in the cell suspension in the upper chamber to an end concentration of 50, 25 or 17 ng/ml.
# That is, in the above model, the phenomena that neutrophils pass from the upper chamber through the vascular endothelial cell layer into the lower chamber, and neutrophils adhere to the endothelial cell layer mimic a state where in response to TNFα within the blood vessel, neutrophils migrate from within the blood vessel to the site of inflammation.
# In the same manner as described above, the number of neutrophils passing from the upper chamber through the vascular endothelial cell layer into the lower chamber, and the number of neutrophils adhering to the endothelial cell layer were measured. Based on these numbers, the neutrophil migration rate (%) was calculated. The neutrophil migration rate was expressed as the relative value (%) of the number of the migrating neutrophils in the drug treatment group with respect to the number of the migrating neutrophils in the negative control group (physiological saline).
# [6] = system: vascular smooth muscle cells; assay: Synthetic type vascular smooth muscle cell proliferation (PDGF, BrdU assay); assay type: cell-based, rat; conditions: 0.3 to 3 μM with PDGF 50 ng/ml, 24 hours
# Experimental: The effect of the study substance on vascular smooth muscle cell proliferation was studied.
# Thus, the effect of Compound 2 on the cell proliferation of vascular smooth muscle cells was measured in the following manner:
# The rat carotid arterial tunica intima was rubbed by ballooning, and vascular smooth muscle cells were prepared by explant culture. Two weeks later, these cells were cultured in a DMEM culture medium (Gibco) containing 10% fetal bovine serum. The cultures were subcultured several times for stabilization, and then planted at a cell density of 5×10^3 cells/cm^2 for use in experiments. Compound 2 in combination with 50 ng/ml of the growth factor PDGF (Sigma) was added to the above planted cells and, 24 hours later, the cell density was measured by BrdU assay (Science '82, 218, p. 474, Cytometry '85, 6, p. 584). The cell density in the absence of the drug was measured as a control.
# Relative smooth muscle cell count (%)=[cell count in the experimental group]/[cell count in the control]×100.
# [7] = system: human platelets; assay: Human in vitro platelet aggregation; assay type: cell-based; conditions: inducer Serotonin + ADP, (0.25˜1) μM + (0.05˜0.25) μM, read-out: 50% inhibition point, IC50, against human in vitro platelet aggregation
smiles,measurement,setting,value
"CC/C=C\C/C=C\C/C=C\C/C=C\C/C=C\C/C=C\CCC(=O)NCCC1CCCN1C (racemic) [Compound 2, (4Z,7Z,10Z,13Z,16Z,19Z)-N-[2-(1-methylpyrrolidin-2-yl)ethyl]docosahexaenoamide]",IC50,"[1]; inducer ADP (0.5˜1) μM, primary aggregation",30 µM
same,IC50,"[1]; inducer ADP (1˜2.5) μM, secondary aggregation",0.57 µM
same,IC50,[1]; inducer Arachidonic acid (1˜2) μM,80 µM
same,IC50,[1]; inducer Collagen (0.075˜0.25) μg/ml,13 µM
same,IC50,"[1]; inducer Epinephrine 1 μM, primary aggregation",33 µM
same,IC50,"[1]; inducer Epinephrine (1˜3) μM, secondary aggregation",2.7 µM
same,IC50,"[1]; inducer Serotonin + Collagen, (0.25˜0.5) μM + (0.05˜0.2) μg/ml",15 µM
same,IC50,[1]; inducer Thrombin (0.2˜0.25) U/ml,57 µM
same,IC50,[1]; inducer U46619 (pseudo-thromboxane A2) (5˜10) μM,53 µM
same,ex vivo IC50 blood concentration as fraction of in vitro IC50,[2]; 26 nM versus 2.1±0.8 μM in vitro,about 1/80
same,ex vivo platelet aggregation (in words),"[2]; 0.0001 mg/kg rat caudal vein, 60 minutes, collagen 4 μg/ml","suppressed compared with the solvent-treated group, although the suppressive action was weak"
same,"ex vivo platelet aggregation, onset of efficacy (in words)","[2]; 10 mg/kg caudal vein, male SD rats, blood 10 minutes, 30 minutes and 1 hour after administration, collagen 0.3 to 6 μg/ml",platelet aggregation was suppressed in comparison with the solvent group
same,ex vivo platelet aggregation (in words),"[2]; 1, 0.1, 0.01 or 0.001 mg/kg rat caudal vein, blood 60 minutes after administration, collagen 4 to 7 μg/ml",platelet aggregation was suppressed in comparison with the solvent-treated group
same,"ex vivo platelet aggregation, dose-dependency (in words)","[2]; FIG. 3, 0.0001 to 1 mg/kg rat caudal vein, 60 minutes",suppressing platelet aggregation ex vivo dose-dependently
same,estimated blood concentration at the ex vivo IC50 dose,"[2]; Platelet, iv, 630 ng/kg, rat blood estimated at about 60 ml/kg, read-out: presumed blood concentration at the ex vivo IC50 dose",0.026 µM
same,IC50 for suppression of ex vivo platelet aggregation relative to conventional GPIIb/IIIa receptor antagonists,"[2]; rat, intravenous","about 1,000 times"
same,"50% suppression point, IC50, ex vivo platelet aggregation","[2]; rat, intravenous, 60 minutes after administration, collagen 4 μg/ml",630 ± 36 ng/kg and 630 ng/kg
same,Survival rate,[3],7/10
same,leg necrosis score (in words),[4]; administration after induction: first dose 6 hours after lauric acid,improve the leg necrosis score dose-dependently
same,leg necrosis score (in words),[4]; administration started 1 hour before lauric acid,improve the leg necrosis score dose-dependently
same,alleviation of the disorder (in words),[4]; dose of 10 μg/kg,tended to alleviate the disorder
same,alleviation of the disorder (in words),[4]; doses of 30 and 100 μg/kg,alleviated the disorder significantly
same,neutrophil passage through vascular endothelial cell layer (in words),[5],suppressed neutrophil passage dose-dependently
same,vascular smooth muscle cell proliferation (in words),[6],suppress vascular smooth muscle cell proliferation concentration-dependently
same,IC50,[7],3 µM
